Species: Rattus norvegicus
Assay: DrugMatrix - Regimen: Daily Repeat
Format: toxicity, organism-based, Sprague-Dawley
Set-up: regimen Daily Repeat, gender Male, age 6-8 weeks
Settings: in vivo, po, route oral GAVAGE, vehicle 100 % WATER; for ABSOLUTE BASOPHIL / ABSOLUTE EOSINOPHIL / ABSOLUTE LYMPHOCYTE / ABSOLUTE MONOCYTE / ABSOLUTE SEGMENTED NEUTROPHIL / BASOPHIL / EOSINOPHIL / ERYTHROCYTE COUNT / HEMATOCRIT / HEMOGLOBIN / LEUKOCYTE COUNT / LYMPHOCYTE / MEAN CORPUSCULAR HEMOGLOBIN / MEAN CORPUSCULAR HEMOGLOBIN CONCENTRATION / MEAN CORPUSCULAR VOLUME / MONOCYTE / NEUTROPHIL / NUCLEATED RED BLOOD CELLS / PLATELET COUNT: tissue Blood; for ALANINE AMINOTRANSFERASE / ALBUMIN / ALKALINE PHOSPHATASE / ASPARTATE AMINOTRANSFERASE / BLOOD UREA NITROGEN / CARBON DIOXIDE / CHLORIDE / CHOLESTEROL / CREATINE PHOSPHOKINASE / CREATININE / GLUCOSE / LACTATE DEHYDROGENASE / LIPASE / PHOSPHORUS / POTASSIUM / SODIUM / TOTAL BILIRUBIN / TOTAL PROTEIN / URIC ACID: tissue Plasma
[1] = 25 mg/kg, 120 h, dose level High, time 5 day
[2] = […], 72 h, dose 6.3 mg/Kg, dose level Low, time 3 day
[3] = […], 120 h, dose 6.3 mg/Kg, dose level Low, time 5 day

With O=P1(N(CCCl)CCCl)NCCCO1 (centres undefined) [CYCLOPHOSPHAMIDE ANHYDROUS] the “ABSOLUTE BASOPHIL” value [1] was 0 CELLS/uL, the “ABSOLUTE EOSINOPHIL” value [1] was 0 CELLS/uL and the “ABSOLUTE LYMPHOCYTE” value [1] was 1111.67 CELLS/uL. For the same compound, the “ABSOLUTE MONOCYTE” value [1] was 4.33 CELLS/uL, the “ABSOLUTE SEGMENTED NEUTROPHIL” value [1] was 117.33 CELLS/uL and the BASOPHIL [1] was 0%. For the same compound, the EOSINOPHIL [1] was 0%, the “ERYTHROCYTE COUNT” value [1] was 4.84 x10E6/uL and the HEMATOCRIT [1] was 29.43%. The HEMOGLOBIN [1] was 11.47 G/DL, the “LEUKOCYTE COUNT” value [1] was 1.23 x10E3/uL and the LYMPHOCYTE [1] was 90.33%. The “MEAN CORPUSCULAR HEMOGLOBIN” value [1] was 23.77 pg, the “MEAN CORPUSCULAR HEMOGLOBIN CONCENTRATION” value [1] was 39 G/DL and the “MEAN CORPUSCULAR VOLUME” value [1] was 60.93 fL. The MONOCYTE [1] was 0.33%, the NEUTROPHIL [1] was 9.33% and the “NUCLEATED RED BLOOD CELLS” value [1] was 0 /100WBC. For the same compound, the “PLATELET COUNT” value [1] was 645 x10E3/uL, the “ALANINE AMINOTRANSFERASE” value [1] was 44.33 u/L and the ALBUMIN [1] was 3.8 G/DL. For the same compound, the “ALKALINE PHOSPHATASE” value [1] was 227.67 u/L, the “ASPARTATE AMINOTRANSFERASE” value [1] was 67.33 u/L and the “BLOOD UREA NITROGEN” value [1] was 15.33 mg/dL. The “CARBON DIOXIDE” value [1] was 31 mmol/L, the CHLORIDE [1] was 102.33 MEQ/L and the CHOLESTEROL [1] was 78.67 mg/dL. For the same compound, the “CREATINE PHOSPHOKINASE” value [1] was 231 u/L, the CREATININE [1] was 0.16 mg/dL and the GLUCOSE [1] was 147.67 mg/dL. The “LACTATE DEHYDROGENASE” value [1] was 83.33 u/L, the LIPASE [1] was 8.33 u/L and the PHOSPHORUS [1] was 9.97 mg/dL. The POTASSIUM [1] was 5.36 MEQ/L, the SODIUM [1] was 144.37 MEQ/L and the “TOTAL BILIRUBIN” value [1] was 0.1 mg/dL. The “TOTAL PROTEIN” value [1] was 5.37 G/DL, the “URIC ACID” value [1] was 0.33 mg/dL and the “ABSOLUTE BASOPHIL” value [2] was 0 CELLS/uL. For the same compound, the “ABSOLUTE EOSINOPHIL” value [2] was 0 CELLS/uL, the “ABSOLUTE LYMPHOCYTE” value [2] was 7172.67 CELLS/uL and the “ABSOLUTE MONOCYTE” value [2] was 29.33 CELLS/uL. The “ABSOLUTE SEGMENTED NEUTROPHIL” value [2] was 531.33 CELLS/uL, the BASOPHIL [2] was 0% and the EOSINOPHIL [2] was 0%. For the same compound, the “ERYTHROCYTE COUNT” value [2] was 5.43 x10E6/uL, the HEMATOCRIT [2] was 33.63% and the HEMOGLOBIN [2] was 13.3 G/DL. The “LEUKOCYTE COUNT” value [2] was 7.73 x10E3/uL, the LYMPHOCYTE [2] was 92.67% and the “MEAN CORPUSCULAR HEMOGLOBIN” value [2] was 24.53 pg. The “MEAN CORPUSCULAR HEMOGLOBIN CONCENTRATION” value [2] was 39.53 G/DL, the “MEAN CORPUSCULAR VOLUME” value [2] was 62.03 fL and the MONOCYTE [2] was 0.33%. The NEUTROPHIL [2] was 7%, the “NUCLEATED RED BLOOD CELLS” value [2] was 0 /100WBC and the “PLATELET COUNT” value [2] was 1008 x10E3/uL. The “ALANINE AMINOTRANSFERASE” value [2] was 63.67 u/L, the ALBUMIN [2] was 4.1 G/DL and the “ALKALINE PHOSPHATASE” value [2] was 374 u/L. The “ASPARTATE AMINOTRANSFERASE” value [2] was 82.67 u/L, the “BLOOD UREA NITROGEN” value [2] was 14 mg/dL and the “CARBON DIOXIDE” value [2] was 34.33 mmol/L. For the same compound, the CHLORIDE [2] was 99.5 MEQ/L, the CHOLESTEROL [2] was 93.33 mg/dL and the “CREATINE PHOSPHOKINASE” value [2] was 214.67 u/L. For the same compound, the CREATININE [2] was 0.13 mg/dL, the GLUCOSE [2] was 141.67 mg/dL and the “LACTATE DEHYDROGENASE” value [2] was 136 u/L. The LIPASE [2] was 12.67 u/L, the PHOSPHORUS [2] was 11.2 mg/dL and the POTASSIUM [2] was 5.83 MEQ/L. The SODIUM [2] was 145.15 MEQ/L, the “TOTAL BILIRUBIN” value [2] was 0.23 mg/dL and the “TOTAL PROTEIN” value [2] was 5.9 G/DL. The “URIC ACID” value [2] was 0.6 mg/dL, the “ABSOLUTE BASOPHIL” value [3] was 0 CELLS/uL and the “ABSOLUTE EOSINOPHIL” value [3] was 11 CELLS/uL. The “ABSOLUTE LYMPHOCYTE” value [3] was 3359 CELLS/uL, the “ABSOLUTE MONOCYTE” value [3] was 20 CELLS/uL and the “ABSOLUTE SEGMENTED NEUTROPHIL” value [3] was 610 CELLS/uL. For the same compound, the BASOPHIL [3] was 0%, the EOSINOPHIL [3] was 0.33% and the “ERYTHROCYTE COUNT” value [3] was 5.53 x10E6/uL. For the same compound, the HEMATOCRIT [3] was 34.97%, the HEMOGLOBIN [3] was 13.43 G/DL and the “LEUKOCYTE COUNT” value [3] was 4 x10E3/uL. For the same compound, the LYMPHOCYTE [3] was 84%, the “MEAN CORPUSCULAR HEMOGLOBIN” value [3] was 24.37 pg and the “MEAN CORPUSCULAR HEMOGLOBIN CONCENTRATION” value [3] was 38.43 G/DL. The “MEAN CORPUSCULAR VOLUME” value [3] was 63.33 fL, the MONOCYTE [3] was 0.67% and the NEUTROPHIL [3] was 15%. For the same compound, the “NUCLEATED RED BLOOD CELLS” value [3] was 0 /100WBC, the “PLATELET COUNT” value [3] was 1266.67 x10E3/uL and the “ALANINE AMINOTRANSFERASE” value [3] was 56.33 u/L. For the same compound, the ALBUMIN [3] was 4.03 G/DL, the “ALKALINE PHOSPHATASE” value [3] was 346.33 u/L and the “ASPARTATE AMINOTRANSFERASE” value [3] was 83.33 u/L. The “BLOOD UREA NITROGEN” value [3] was 14 mg/dL, the “CARBON DIOXIDE” value [3] was 31.33 mmol/L and the CHLORIDE [3] was 99.5 MEQ/L. The CHOLESTEROL [3] was 65.67 mg/dL, the “CREATINE PHOSPHOKINASE” value [3] was 216.33 u/L and the CREATININE [3] was 0.2 mg/dL. For the same compound, the GLUCOSE [3] was 137.33 mg/dL, the “LACTATE DEHYDROGENASE” value [3] was 136 u/L and the LIPASE [3] was 10.33 u/L. The PHOSPHORUS [3] was 10.6 mg/dL, the POTASSIUM [3] was 5.74 MEQ/L and the SODIUM [3] was 145.9 MEQ/L. The “TOTAL BILIRUBIN” value [3] was 0.17 mg/dL, the “TOTAL PROTEIN” value [3] was 5.9 G/DL and the “URIC ACID” value [3] was 0.53 mg/dL.
